From paper PMC7490411 (Signal Transduction and Targeted Therapy, 2020)

Tests used:
Assay in all cases: KINOMEscan
Assay type in all cases: binding
Settings in all cases: 1000 nM
LIMK2 = tested on: LIMK2
CAMK2D = tested on: CAMK2D
HIPK1 = tested on: HIPK1
STK35 = tested on: STK35
CDK3 = tested on: CDK3
[1] = tested on: RSK2(Kin.Dom.1-N-terminal)
ZAP70 = tested on: ZAP70
PLK3 = tested on: PLK3
[2] = tested on: ABL1(Q252H)-nonphosphorylated
SYK = tested on: SYK
NIK = tested on: NIK
IRAK3 = tested on: IRAK3
MARK4 = tested on: MARK4
MST4 = tested on: MST4
MAP3K3 = tested on: MAP3K3
SRPK3 = tested on: SRPK3
FLT3-autoinhibited = tested on: FLT3-autoinhibited
BMPR1A = tested on: BMPR1A
[3] = tested on: TYK2(JH1domain-catalytic)
FLT3(ITD,F691L) = tested on: FLT3(ITD,F691L)
FGFR2 = tested on: FGFR2
PDPK1 = tested on: PDPK1
LCK = tested on: LCK
PHKG1 = tested on: PHKG1
KIT(D816H) = tested on: KIT(D816H)
SIK = tested on: SIK
GRK2 = tested on: GRK2
AXL = tested on: AXL
PKN2 = tested on: PKN2
EGFR(S752-I759del) = tested on: EGFR(S752-I759del)
ADCK4 = tested on: ADCK4
EPHA1 = tested on: EPHA1
PCTK2 = tested on: PCTK2
MEK1 = tested on: MEK1
IKK-epsilon = tested on: IKK-epsilon
EPHA6 = tested on: EPHA6
FLT3(D835H) = tested on: FLT3(D835H)
PIK3CA(E545K) = tested on: PIK3CA(E545K)
[4] = tested on: EGFR(L747-S752del, P753S)
HUNK = tested on: HUNK
PIP5K1A = tested on: PIP5K1A
KIT(V559D,T670I) = tested on: KIT(V559D,T670I)
GCN2(Kin.Dom.2,S808G) = tested on: GCN2(Kin.Dom.2,S808G)
[5] = tested on: ABL1(Y253F)-phosphorylated
AMPK-alpha2 = tested on: AMPK-alpha2
SGK = tested on: SGK
HPK1 = tested on: HPK1
WNK3 = tested on: WNK3
ACVRL1 = tested on: ACVRL1
ANKK1 = tested on: ANKK1
PDGFRA = tested on: PDGFRA
SRPK2 = tested on: SRPK2
PLK4 = tested on: PLK4
TRKB = tested on: TRKB
PRKX = tested on: PRKX
EGFR(E746-A750del) = tested on: EGFR(E746-A750del)
CDKL5 = tested on: CDKL5
PIM2 = tested on: PIM2
SNARK = tested on: SNARK

C=CC(=O)Nc1cc(Nc2cc(-c3cccc(NC(=O)c4cc5c(s4)CCCC5)c3C)cn(C)c2=O)ccc1N1CCN(CC)CC1 [CHMFL-BTK-85]
Percent Control (LIMK2): 100%
Percent Control (CAMK2D): 75%
Percent Control (HIPK1): 75%
Percent Control (STK35): 100%
Percent Control (CDK3): 86%
Percent Control [1]: 100%
Percent Control (ZAP70): 100%
Percent Control (PLK3): 99%
Percent Control [2]: 84%
Percent Control (SYK): 100%
Percent Control (NIK): 100%
Percent Control (IRAK3): 100%
Percent Control (MARK4): 66%
Percent Control (MST4): 100%
Percent Control (MAP3K3): 100%
Percent Control (SRPK3): 83%
Percent Control (FLT3-autoinhibited): 100%
Percent Control (BMPR1A): 97%
Percent Control [3]: 100%
Percent Control (FLT3(ITD,F691L)): 77%
Percent Control (FGFR2): 77%
Percent Control (PDPK1): 77%
Percent Control (LCK): 86%
Percent Control (PHKG1): 94%
Percent Control (KIT(D816H)): 100%
Percent Control (SIK): 99%
Percent Control (GRK2): 100%
Percent Control (AXL): 100%
Percent Control (PKN2): 81%
Percent Control (EGFR(S752-I759del)): 90%
Percent Control (ADCK4): 100%
Percent Control (EPHA1): 90%
Percent Control (PCTK2): 100%
Percent Control (MEK1): 100%
Percent Control (IKK-epsilon): 53%
Percent Control (EPHA6): 100%
Percent Control (FLT3(D835H)): 100%
Percent Control (PIK3CA(E545K)): 98%
Percent Control [4]: 100%
Percent Control (HUNK): 100%
Percent Control (PIP5K1A): 96%
Percent Control (KIT(V559D,T670I)): 100%
Percent Control (GCN2(Kin.Dom.2,S808G)): 75%
Percent Control [5]: 83%
Percent Control (AMPK-alpha2): 89%
Percent Control (SGK): 100%
Percent Control (HPK1): 85%
Percent Control (WNK3): 100%
Percent Control (ACVRL1): 100%
Percent Control (ANKK1): 100%
Percent Control (PDGFRA): 100%
Percent Control (SRPK2): 100%
Percent Control (PLK4): 97%
Percent Control (TRKB): 100%
Percent Control (PRKX): 95%
Percent Control (EGFR(E746-A750del)): 100%
Percent Control (CDKL5): 100%
Percent Control (PIM2): 87%
Percent Control (SNARK): 100%
